The record followed here is a melting point compilation (Tetko et al.; mined from patent text by program, amines drawn as free bases though some values may be those of a salt).

A value given as a limit tells only on which side of the number the result lay.

By melting point is commonly meant the temperature of the solid-liquid transition. On to `COc1ccc2c(c1)CC(NNc1ncnc3c1ncn3C1OC(CO)C(O)C1O)CO2` (stereo unspecified), for which the melting point was in the range of 90 to 95 °C. As for `O=CC1C(=O)NC(=O)N1CCCCCCC(=O)O` (stereo unspecified), the figure is 224 to 225 °C; as for `CCCCc1nc(Cl)c(C=O)n1Cc1ccc(-c2ccccc2-c2n[nH]c(=O)o2)cc1`, 178 to 179 °C.

As to `CCCCCCCCCCCCCCCCCCNC(=O)OCC1(CO)CCCO1` (stereo unspecified), the melting point lay within 57 to 58 °C. The value for `O=C(O)c1cn2c3c(ccc([N+](=O)[O-])c3c1=O)C1CCCCC12` (stereo unspecified) was 251 to 253 °C; that for `CCCC[C@H](NC(=O)[C@H](CC(C)C)NC(=O)OCc1ccccc1)C(=O)CCCc1cccs1` was 65 to 67 °C. `NC1=NC2(O)c3cc([N+](=O)[O-])ccc3CC2S1` (stereo unspecified) registered a melting point greater than 250 °C.

`O=c1[nH]ncn1-c1ccc(I)cc1` returned a melting point of 258 °C. In turn, `Cn1c(Sc2cc(C(F)(F)F)ccc2C#N)n[nH]c1=O` gave a melting point of 182 °C.

For the molecule `Clc1cc(N2CCNCC2)c(Cl)nn1`, the melting point was 111 to 115 °C. The value for `Cc1cc(N2CCN(C(=O)OC(C)(C)C)CC2)ccc1[N+](=O)[O-]` was 145 to 146 °C; that for `COCCNc1c([N+](=O)[O-])cnc2ccccc12` was 113 to 115 °C. In the case of `c1ccc(-n2c(Cc3ccccn3)nc3ccccc32)cc1`, the melting point fell in the range of 106 to 108 °C.

The molecule `Cc1cccc(NC(=O)NCC(=O)N(CC(=O)N2CCCCC2C)c2ccccc2)c1` (racemic) came in with a melting point of 188 °C. On to `CNS(=O)(=O)c1cc(O)ccc1OC(=O)c1ccccc1`, for which the melting point was in the range of 168 to 170 °C. As for `CNC(=O)C1=CC(COC)(COC)Oc2ccc([N+](=O)[O-])cc21`, the figure is 147 to 149 °C. Consider `CC(=O)SCC(Cc1ccccc1)C(=O)Nc1cccc(C(=O)NCC(=O)OCc2ccccc2)c1` (stereo unspecified), for which the melting point lay in the range of 122 to 123 °C. The molecule `Cc1ccc(S(=O)(=O)OC[C@H]2COc3ccc([N+](=O)[O-])cc3O2)cc1` displayed a melting point of 138 °C.

`COc1ccc(C=NNC(=O)c2ccc(O)cc2)cc1` showed a melting point of 209 °C. As for `CC(C)Cn1c(CN2CCCS2(=O)=O)nc2c(N)nc3c(c21)CCCC3`, the figure is 200 to 203 °C; as for `COC(=O)c1cc(Cl)c(N)c2c1OCC2`, 135 °C. The value for `C=C(C)CN1CCN(CCC(=O)N2c3ccccc3C(=O)Nc3cccnc32)CC1` was 210 to 211 °C. The value for `CCOC(=O)[C@H](Cc1ccc(OS(=O)(=O)C(F)(F)F)cc1)NC(=O)OC(C)(C)C` was 47 to 49 °C. `CC(C)(C)OC(=O)C1CCNC1=S` (stereo unspecified) showed a melting point of 110 to 111 °C. Consider `CCC(C(=O)Nc1c(C)cccc1C)N(C)C` (stereo unspecified), for which the melting point fell in the range of 155 to 157 °C.

On to `CN1CCC(Oc2cc3c(cc2F)c(=O)c(C(=O)O)cn3C2CC2)CC1`, for which the melting point fell in the range of 265 to 269 °C. The value for `CCOC(=O)/C=C/c1cnc(-c2ccc(OCc3ccccc3)c(C34CC5CC(CC(C5)C3)C4)c2)nc1` was 164 to 167 °C; that for `O=C(O)c1ccc2c(c1)CCN2Cc1cccc([N+](=O)[O-])c1` was 259 to 262 °C; that for `COc1cc(C(=O)O)ccc1Cc1c(Cl)n(C)c2ccc(CC(C)NC(=O)N(C)C)cc12` (stereo unspecified) was 171 to 173 °C. As for `CCOC(=O)C1=C(C)NC(C)=C(C(=O)OCC)C1c1cccc2nonc12`, the figure is 153 to 155 °C; as for `FC1(F)N=c2cc3c(cc2=N1)OC(Br)O3`, 160 to 164 °C; as for `CC#Cc1ccc(NC(=O)c2ccccc2NCc2ccncc2)cc1C(F)(F)F`, 165 to 166 °C. As for `CC(C)n1nc(-c2c(-c3ccccc3)nc(N)nc2-n2ccnc2)ccc1=O`, the figure is 255 to 258 °C; as for `c1ccc2cc(OCCc3c[nH]cn3)ccc2c1`, 157 to 158 °C. In turn, `CC#CCOc1cc(Oc2c(F)cc(F)cc2F)ncn1` registered a melting point of 60.3 °C. The value for `O=C(Nc1cccc2c(-n3c(-c4cccnc4)nc4ccccc43)ccnc12)c1c(Cl)cccc1Cl` was 203 to 204 °C.
